Experimental data from patent publication US10584129B2, “Substituted 6,7-dihydropyrazolo[1,5-a]pyrazines as negative allosteric modulators of mGluR2 receptors” (Janssen Pharmaceutica NV, priority 2013, dated 2020).

System: Wiga rats
Experiment: Reserpine interaction test in rats
Assay type: in vivo, rat
Details: PO, Time 60, reserpine 10 mg/kg SC, -1 h; for ED50: Rattus norvegicus, read-out: ED50 reversal of reserpine-induced ptosis

| Compound | ED50 | ED50 reversal of reserpine-induced ptosis |
| --- | --- | --- |
| CNc1cc(-c2cnn3c2C(=O)N(c2ccc(C(F)(F)F)cc2)C[C@@H]3C)ccn1 [compound 147] | 7.94 mg/kg | – |
| Cc1cc(-c2cnn3c2C(=O)N(c2ccc(Cl)cc2C)CC3C)ccn1 (stereo not shown) [compound 172] | 1.26 mg/kg | – |
| Cc1cc(-c2cnn3c2C(=O)N(c2ccc(C(F)(F)F)cc2)CC3(C)C)ccn1 [compound 171] | – | 5 mg/kg |
| Cc1cc(-c2cnn3c2C(=O)N(c2ccc(Cl)cc2Cl)C[C@@H]3C)ccn1 [compound 167] | 0.1 mg/kg | – |
| Cc1cc(-c2cnn3c2C(=O)N(c2ccc(C(F)(F)F)cn2)CC3C)cc(C)n1 (stereo not shown) [compound 194] | 5 mg/kg | – |
| COc1cc(Cl)ccc1N1CC(C)n2ncc(-c3ccnc(C)c3)c2C1=O (stereo not shown) [compound 161] | 3.15 mg/kg | – |
| CCOc1ccc(Cl)c(N2CC(C)n3ncc(-c4ccnc(C)c4)c3C2=O)n1 (stereo not shown) [compound 195] | 1.25 mg/kg | – |
